Reference: US11214561B2, “Histone methyltransferase EZH2 inhibitor, preparation method and pharmaceutical use thereof” (ANCUREALL PHARMACEUTICAL (SHANGHAI) CO., LTD., priority 2017, dated 2022)

Key:
Pfeiffer (EZH2 A677G) = test: In vitro 50% growth inhibition (GI50), MTT/CCK8, Pfeiffer cells; type: cell-based, Human; settings: for GI50: Homo sapiens, Pfeiffer, 240 h, Drug treatment for 10 days; for growth inhibitory activity / GI50 level against Pfeiffer, in words: EZH2 A677G mutant cells Pfeiffer
Text: (§1) In the present invention, a representative tumor cell line was selected to determine the cell growth inhibition activity of the present compound. Cell culture conditions and methods were in accordance with the requirements for each cell lines. The cells were subcultured in vitro for less than 3 generations each time, and as required, monoclone purification and identification of cell lines could be carried out.
(§2) The cell culture media used were RPMI1640 (Gibco) comprising 5-20% of fetal bovine serum (Gibco), 1% of double-antibiotic and 2 mM of glutamine.
(§3) Suspension culture cells were collected by centrifugation (1700 rpm, 3 minutes), and the supernatant was discarded and the cells were counted. According to each cell growth cycle, different concentrations of cells were prepared (1-10×10^4 cells per ml) and added to 96-well plates (Corning) with 100 μl per well, and then incubated overnight at 37° C., 5% CO2. The next day, the test compound was added to the cultured cells (2 wells in parallel). The final concentration of the solvent was less than 1/1,000. The cells were further cultured for 6 to 12 days and assayed by MTT.
(§4) The compound was stored at a concentration of 10 mM at −20° C. and diluted to two-fold or 10-fold series prior to use.
(§5) For the suspension culture cells, CCK8 was directly added to 10% of the final concentration. The cells were continually incubated for […].
(§6) The experiments were repeated 3 times and a statistical analysis of data was conducted.

Karpas-422 (EZH2 Y641N) = test: In vitro 50% growth inhibition (GI50), MTT/CCK8, Karpas-422 cells; type: cell-based; settings: Homo sapiens, KARPAS-422, 144 h; Drug treatment for 6 days
Text: as §1, §2, §3, §4, §5, §6

SU-DHL-8 (EZH2 WT) = test: In vitro 50% growth inhibition (GI50), MTT/CCK8, SU-DHL-8 cells; type: cell-based; settings: Homo sapiens, SU-DHL-8, 144 h; Drug treatment for 6 days
Text: as §1, §2, §3, §4, §5, §6

Row | GI50 (Karpas-422 (EZH2 Y641N)) | GI50 (SU-DHL-8 (EZH2 WT)) | Structure (SMILES) | GI50 (Pfeiffer (EZH2 A677G)) | growth inhibitory activity / GI50 level against Pfeiffer, in words (Pfeiffer (EZH2 A677G))
1 | 10 to 100 nM | > 1000 nM | C=CC(=O)N1CCC(N(CC)c2cc(C#CCN3CCOCC3)cc(C(=O)NCc3c(C)cc(C)[nH]c3=O)c2C)C1 (centres unmarked) [Example 51, N-(4,6-dimethyl-2-oxo-1,2-dihydro-pyridin-3-ylmethyl)-3-[(1-acryloyl-pyrrolidin-3-yl)-ethyl-amino]-2-methyl-5-[3-(morpholin-4-yl)-propyn-1-yl]-benzamide] | 1 to 10 nM | 
2 | 10 to 100 nM | > 1000 nM | C=CC(=O)N1CCC(N(CC)c2cc(-c3ccc(CN4CCOCC4)c(Cl)c3)cc(C(=O)NCc3c(C)cc(C)[nH]c3=O)c2C)CC1 [Example 71, N-(4,6-dimethyl-2-oxo-1,2-dihydro-pyridin-3-ylmethyl)-5-[(1-acryloyl-piperidin-4-yl)-ethyl-amino]-3′-chloro-4-methyl-4′-(morpholin-4-ylmethyl)-[1,1′-biphenyl]-3-carboxamide] | 1 to 10 nM | 
3 | 10 to 100 nM | > 1000 nM | C=CC(=O)N1CCC(N(CC)c2cc(-c3cccc(CN4CCCCC4)c3)cc(C(=O)NCc3c(C)cc(C)[nH]c3=O)c2C)C1 (centres unmarked) [Example 31, N-(4,6-dimethyl-2-oxo-1,2-dihydro-pyridin-3-ylmethyl)-5-[(1-acryloyl-pyrrolidin-3-yl)-ethyl-amino]-4-methyl-3′-(piperidin-1-ylmethyl)-[1,1′-biphenyl]-3-carboxamide] | 1 to 10 nM | 
4 | 10 to 100 nM | > 1000 nM | C=CC(=O)N1CCC(N(CC)c2cc(-c3cccc(CN4CCOCC4)c3)cc(C(=O)NCc3c(C)cc(C)[nH]c3=O)c2C)C1 (centres unmarked) [Example 30, N-(4,6-dimethyl-2-oxo-1,2-dihydro-pyridin-3-ylmethyl)-5-[(1-acryloyl-pyrrolidin-3-yl)-ethyl-amino]-4-methyl-3′-(morpholin-4-yl)-methyl-[1,1′-biphenyl]-3-carboxamide] | 1 to 10 nM | 
5 | 10 to 100 nM | > 1000 nM | C=CC(=O)N1CCC(N(CC)c2cc(-c3ccc(CN4CCC(OCC)CC4)cc3)cc(C(=O)NCc3c(C)cc(C)[nH]c3=O)c2C)CC1 [Example 88, N-(4,6-dimethyl-2-oxo-1,2-dihydro-pyridin-3-ylmethyl)-5-[(1-acryloyl-piperidin-4-yl)-ethyl-amino]-4-methyl-4′-(4-ethoxypiperidin-1-ylmethyl)-[1,1′-biphenyl]-3-carboxamide] | < 1 nM | subnanomolar level
6 | 10 to 100 nM | > 1000 nM | C=CC(=O)N1CCC(N(CC)c2cc(-c3ccc(CN4CCOCC4)c(F)c3)cc(C(=O)NCc3c(C)cc(C)[nH]c3=O)c2C)CC1 [Example 62, N-(4,6-dimethyl-2-oxo-1,2-dihydro-pyridin-3-ylmethyl)-5-[(1-acryloyl-piperidin-4-yl)-ethyl-amino]-3′-fluoro-4-methyl-4′-(morpholin-4-ylmethyl)-[1,1′-biphenyl]-3-carboxamide] | 1 to 10 nM | 
7 | 10 to 100 nM | > 1000 nM | C=CC(=O)N1CCC(N(CC)c2cc(-c3ccc(CN4CCC(N5CCOCC5)CC4)cc3)cc(C(=O)NCc3c(C)cc(C)[nH]c3=O)c2C)CC1 [Example 81] | 1 to 10 nM | 
8 | 100 to 1000 nM | > 1000 nM | C=CC(=O)N1CCC(N(CC)c2cc(-c3ccc(N4CCOCC4)cc3)cc(C(=O)NCc3c(C)cc(C)[nH]c3=O)c2C)C1 (centres unmarked) [Example 24, N-(4,6-dimethyl-2-oxo-1,2-dihydro-pyridin-3-ylmethyl)-5-[(1-acryloyl-pyrrolidin-3-yl)-ethyl-amino]-4′-(morpholin-4-yl)-4-methyl-biphenyl-3-carboxamide] | 1 to 10 nM | 

The next lines start with the molecule.

Row | Structure (SMILES) | GI50 (Karpas-422 (EZH2 Y641N)) | GI50 (SU-DHL-8 (EZH2 WT)) | GI50 (Pfeiffer (EZH2 A677G)) | growth inhibitory activity / GI50 level against Pfeiffer, in words (Pfeiffer (EZH2 A677G))
9 | C=CC(=O)N1CCC(N(CC)c2cc(-c3ccc(N4CCN(C)CC4)nc3)cc(C(=O)NCc3c(C)cc(C)[nH]c3=O)c2C)C1 (centres unmarked) [Example 53, N-(4,6-dimethyl-2-oxo-1,2-dihydro-pyridin-3-ylmethyl)-3-[(1-acryloyl-pyrrolidin-3-yl)-ethyl-amino]-2-methyl-5-[6-(4-methylpiperazin-1-yl)-pyridin-3-yl]-benzamide] | 10 to 100 nM | > 1000 nM | 1 to 10 nM | 
10 | C=CC(=O)N1CCC(N(CC)c2cc(-c3ccc(CN4CCOCC4)c(F)c3)cc(C(=O)NCc3c(C)cc(C)[nH]c3=O)c2C)C1 (centres unmarked) [Example 23, N-(4,6-dimethyl-2-oxo-1,2-dihydro-pyridin-3-ylmethyl)-5-[(1-acryloyl-pyrrolidin-3-yl)-ethyl-amino]-3′-fluoro-4′-(morpholin-4-ylmethyl)-4-methyl-biphenyl-3-carboxamide] | 10 to 100 nM | > 1000 nM | 1 to 10 nM | 
11 | C=CC(=O)N1CCC(N(CC)c2cc(-c3ccc(CN4CCCCC4)cc3)cc(C(=O)NCc3c(C)cc(C)[nH]c3=O)c2C)C1 (centres unmarked) [Example 18, N-(4,6-dimethyl-2-oxo-1,2-dihydro-pyridin-3-ylmethyl)-5-[(1-acryloyl-pyrrolidin-3-yl)-ethyl-amino]-4′-(piperidin-1-ylmethyl)-4-methyl-biphenyl-3-carboxamide] | 10 to 100 nM | > 1000 nM | 1 to 10 nM | 
12 | CC#CC(=O)N1CCC(N(CC)c2cc(Br)cc(C(=O)NCc3c(C)cc(C)[nH]c3=O)c2C)C1 (centres unmarked) [Example 15] | 10 to 100 nM | > 1000 nM | 1 to 10 nM | 
13 | C=CC(=O)N1CCC(N(CC)c2cc(-c3ccc(CN4CC(OC)C4)cc3)cc(C(=O)NCc3c(C)cc(C)[nH]c3=O)c2C)CC1 [Example 76, N-(4,6-dimethyl-2-oxo-1,2-dihydro-pyridin-3-ylmethyl)-5-[(1-acryloyl-piperidin-4-yl)-ethyl-amino]-4-methyl-4′-(3-methoxy-1-azetidinylmethyl)-[1,1′-biphenyl]-3-carboxamide] | 10 to 100 nM | > 1000 nM | 1 to 10 nM | 
14 | C=CC(=O)N1CCC(N(CC)c2cc(-c3ccc(CN4CCOCC4)cc3)cc(C(=O)NCc3c(C)cc(C)[nH]c3=O)c2C)C1 (centres unmarked) [Example 20, N-(4,6-dimethyl-2-oxo-1,2-dihydro-pyridin-3-ylmethyl)-5-[(1-acryloyl-pyrrolidin-3-yl)-ethyl-amino]-4′-(morpholin-4-ylmethyl)-4-methyl-biphenyl-3-carboxamide] | 100 to 1000 nM | > 1000 nM | 1 to 10 nM | 
15 | C=CC(=O)N1CCC(N(CC)c2cc(OC)cc(C(=O)NCc3c(C)cc(C)[nH]c3=O)c2C)C1 (centres unmarked) [Example 16, 3-[(1-acryloyl-pyrrolidin-3-yl)-ethyl-amino]-5-methoxy-N-(4,6-dimethyl-2-oxo-1,2-dihydrogen-pyridin-3-ylmethyl)-2methyl-benzamide] | 100 to 1000 nM | > 1000 nM | 10 to 100 nM | 
16 | C=CC(=O)N1CCC(N(CC)c2cc(Br)cc(C(=O)NCc3c(C)cc(C)[nH]c3=O)c2C)CC1 [Example 6, 3-[(1-acryloyl-piperidin-4-yl)-ethyl-amino]-5-bromo-N-(4,6-dimethyl-2-oxo-1,2-dihydro-pyridin-3-ylmethyl)-2-methyl-benzamide] | 10 to 100 nM | > 1000 nM | 1 to 10 nM | 
17 | C=CC(=O)N1CCC(N(C)c2cc(Br)cc(C(=O)NCc3c(C)cc(C)[nH]c3=O)c2C)C1 (centres unmarked) [Example 10, 3-[(1-acryloyl-pyrrolidin-3-yl)-methyl-amino]-5-bromo-N-(4,6-dimethyl-2-oxo-1,2-dihydro-pyridin-3-ylmethyl)-2methyl-benzamide] | > 1000 nM | > 1000 nM | 10 to 100 nM | 
18 | C=CC(=O)N1CCC(N(CC)c2cc(Cl)cc(C(=O)NCc3c(C)cc(C)[nH]c3=O)c2C)C1 (centres unmarked) [Example 3, 3-[(1-acryloyl-pyrrolidin-3-yl)-ethyl-amino]-5-chloro-N-(4,6-dimethyl-2-oxo-1,2-dihydro-pyridin-3-ylmethyl)-2-methyl-benzamide] | 10 to 100 nM | > 1000 nM | 1 to 10 nM | 
19 | C=CC(=O)N1CCC(N(CC)c2cc(-c3ccc(CN4CCN(C5CCOCC5)CC4)cc3)cc(C(=O)NCc3c(C)cc(C)[nH]c3=O)c2C)CC1 [Example 89, N-(4,6-dimethyl-2-oxo-1,2-dihydro-pyridin-3-ylmethyl)-5-[(1-acryloyl-piperidin-4-yl)-ethyl-amino]-4-methyl-4′-[4-(tetrahydropyran-4-yl)-piperazin-1-ylmethyl]-[1,1′-biphenyl]-3-carboxamide] | 10 to 100 nM | > 1000 nM | < 1 nM | subnanomolar level
20 | C=CC(=O)N1CCC(N(CC)c2cc(-c3ccc(CN4CCOCC4)c(Cl)c3)cc(C(=O)NCc3c(C)cc(C)[nH]c3=O)c2C)C1 (centres unmarked) [Example 21, N-(4,6-dimethyl-2-oxo-1,2-dihydro-pyridin-3-ylmethyl)-5-[(1-acryloyl-pyrrolidin-3-yl)-ethyl-amino]-3′-chloro-4′-(morpholin-4-ylmethyl)-4-methyl-biphenyl-3-carboxamide] | 100 to 1000 nM | > 1000 nM | 1 to 10 nM | 
21 | C=CC(=O)N1CCC(N(CCCC)c2cc(Br)cc(C(=O)NCc3c(C)cc(C)[nH]c3=O)c2C)C1 (centres unmarked) [Example 9, 3-[(1-acryloyl-pyrrolidin-3-yl)-butyl-amino]-5-bromo-N-(4,6-dimethyl-2-oxo-1,2-dihydro-pyridin-3-ylmethyl)-2methyl-benzamide] | > 1000 nM | > 1000 nM | 10 to 100 nM | 
